Data set [1] concerns male Wistar rats with L5 spinal nerve injury. As to the kind of experiment: Tactile allodynia after L5 spinal nerve injury, von Frey paw withdrawal threshold, intrathecal injection. In kind it is in vivo, rat. As to conditions: for paw withdrawal threshold 45 min after injection: ipsilateral hindpaw. The procedure:
(§1) We used the spinal nerve injury model (Kim, S. H. & Chung, J. M. An experimental model for peripheral neuropathy produced by segmental spinal nerve ligation in the rat. Pain 50, 355-363. (1992)) with some modifications; a unilateral L5 spinal nerve of male Wistar rats was tightly ligated and cut just distal to the ligature. The mechanical allodynia was assessed in naive and nerve-injured rats using calibrated von Frey filaments (0.4-15.1 g). Rats were injected intrathecally with P2XR antagonists, TNP-ATP and PPADS (Sigma-RBI), and antisense and mismatch ODN. For the experiments in FIG. 5, the cultured microglia (see Supplementary Information 1) that had been pre-incubated with or without ATP (50 μM) were injected intrathecally in normal rats. Full details of experimental methods are as follows.
(§2) A unilateral L5 spinal nerve of male Wistar rats was tightly ligated and cut just distal to the ligature. To assess the mechanical allodynia, the calibrated von Frey filaments (0.4-15.1 g) were applied to the plantar surface of the hindpaw from below the mesh floor. The 50% paw withdrawal threshold was determined using the up-down method (Chaplan, S. R., Bach, F. W., Pogrel, J. W., Chung, J. M. & Yaksh, T. L. Quantitative assessment of tactile allodynia in the rat paw. J Neurosci Methods 53, 55-63, 1994). Rats were implanted with a PE-10 polyethylene tube to the lumber enlargement (Yaksh, T. L., Jessell, T. M., Gamse, R., Mudge, A. W. & Leeman, S. E. Intrathecal morphine inhibits substance P release from mammalian spinal cord in vivo. Nature 286, 155-157, 1980) for intrathecal injection of P2XR antagonists [2′,3′-O-(2,4,6-trinitrophenyl)adenosine 5′-triphosphate (TNP-ATP) (Sigma-RBI) and pyridoxalphosphate-6-azophenyl-2′,4′-disulphonic acid (PPADS) (Sigma-RBI)], P2X4R antisense or mismatch ODN. We confirmed that PPADS and TNP-ATP used in the present study show biological activity to inhibit effects of α,β-methylene ATP in vitro and in vivo. The 16-base antisense ODN endcapped with phosphorothioate linkages were designed according to the primary sequence of the rat P2X4R cDNA (X87763). The sequence of the P2X4R antisense and mismatch ODN was 5′-CAGCCCGCCATGGCTC-3′ (SEQ ID NO: 3) and 5′-ACCGCCGCCAGTGCCT-3′ (SEQ ID NO: 4), respectively. The mismatch ODN served as a control. Rats were injected intrathecally with antisense ODN (5 nmol 10 μl^−1) and mismatch ODN (5 nmol 10 μl^−1) using a 25-μl Hamilton syringe with 28-gauge needle once a day from day 0 (immediately after nerve injury) to day 6. On day 7, paw withdrawal threshold of antisense ODN- and mismatch ODN-treated rats were tested. After the test, to quantify the levels of P2X4R protein in the spinal cord in both groups using Western blot analysis, the membrane fraction from the ipsilateral spinal cord segments L4-L6 was prepared. For the experiments in which cultured microglia were administered intrathecally, the cultured microglia were pre-incubated with ATP (50 μM) or PBS for 1 hr at 37° C. immediately prior to administration. Microglia with their supernatant were injected intrathecally in normal rats and paw withdrawal threshold was tested 1, 3 and 5 hr later. TNP-ATP (10 μM) was preincubated with microglia starting 10 min prior to ATP application.

In data set [2] the test system is normal rats. The experiment in a line: Tactile allodynia in normal rats after intrathecal administration of ATP-stimulated cultured microglia. In kind it is in vivo, rat. As to the method: as §1
as §2, with “On day 7, paw withdrawal threshold of antisense ODN- and mismatch ODN-treated rats were tested.” left out, “For the experiments in which cultured microglia were administered intrathecally, the cultured microglia were pre-incubated with ATP (50 μM) or PBS for 1 hr at 37° C. immediately prior to administration. Microglia with their supernatant were injected intrathecally in normal rats and paw withdrawal threshold was tested 1, 3 and 5 hr later. TNP-ATP (10 μM) was preincubated with microglia starting 10 min prior to ATP application.” left out

Data set [3] deals with T1, P2X4Rs (Rattus norvegicus, UniProt P51577).
T1 construct: mixed glial culture was prepared from neonatal Wistar rats; endogenous in cells; host or cells: primary cultured microglia from neonatal Wistar rats
T1 sequence (P51577 1-388): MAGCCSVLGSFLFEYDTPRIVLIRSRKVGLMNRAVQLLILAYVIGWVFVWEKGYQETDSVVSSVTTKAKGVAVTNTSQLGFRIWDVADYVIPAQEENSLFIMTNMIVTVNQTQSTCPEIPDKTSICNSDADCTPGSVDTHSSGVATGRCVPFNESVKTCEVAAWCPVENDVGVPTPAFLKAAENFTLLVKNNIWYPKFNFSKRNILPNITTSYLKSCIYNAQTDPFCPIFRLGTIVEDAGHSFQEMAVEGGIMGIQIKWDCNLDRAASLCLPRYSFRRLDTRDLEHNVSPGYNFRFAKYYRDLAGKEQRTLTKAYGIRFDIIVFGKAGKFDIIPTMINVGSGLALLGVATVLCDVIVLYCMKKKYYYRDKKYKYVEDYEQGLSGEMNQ
The experiment in a line: Intracellular Ca2+ imaging (fura-2) of ATP-evoked response in primary cultured microglia. In kind it is cell-based. Particulars: for ATP-evoked increase in 340/360 ratio (fura-2): 10 min before and during ATP (50 μM, 10 s).
Description: As P2X4Rs are reported to be highly permeable to Ca^2+ (Khakh, B. S. et al. International union of pharmacology. XXIV. Current status of the nomenclature and properties of P2X receptors and their subunits. Pharmacol Rev 53, 107-118, 2001), we investigated whether the P2X4Rs on these microglia were functional by applying the agonist ATP and monitoring the level of intracellular Ca^2+ ([Ca^2+]i) in individual cells using the Ca^2+-sensitive fluorescent dye fura-2.
The detailed procedures are as follows. Rat primary cultured microglia were prepared according to the method described previously (Nakajima, K. et al. Identification of elastase as a secretory protease from cultured rat microglia. J Neurochem 58, 1401-1408, 1992). In brief, mixed glial culture was prepared from neonatal Wistar rats and maintained for 10-16 days in DMEM with 10% fetal bovine serum. Microglia were obtained as floating cells over the mixed glial culture. The floating cells were collected by a gentle shake and transferred to appropriate dishes or glasses, and then the microglia attached to them were used for RT-PCR, intracellular Ca^2+ imaging, immunocytochemistry.

Data set [4] has as its system effects of α,β-methylene ATP. As to the kind of experiment: Check of biological activity against effects of α,β-methylene ATP in vitro and in vivo. As to the method: A unilateral L5 spinal nerve of male Wistar rats was tightly ligated and cut just distal to the ligature. To assess the mechanical allodynia, the calibrated von Frey filaments (0.4-15.1 g) were applied to the plantar surface of the hindpaw from below the mesh floor. The 50% paw withdrawal threshold was determined using the up-down method (Chaplan, S. R., Bach, F. W., Pogrel, J. W., Chung, J. M. & Yaksh, T. L. Quantitative assessment of tactile allodynia in the rat paw. J Neurosci Methods 53, 55-63, 1994). Rats were implanted with a PE-10 polyethylene tube to the lumber enlargement (Yaksh, T. L., Jessell, T. M., Gamse, R., Mudge, A. W. & Leeman, S. E. Intrathecal morphine inhibits substance P release from mammalian spinal cord in vivo. Nature 286, 155-157, 1980) for intrathecal injection of P2XR antagonists [2′,3′-O-(2,4,6-trinitrophenyl)adenosine 5′-triphosphate (TNP-ATP) (Sigma-RBI) and pyridoxalphosphate-6-azophenyl-2′,4′-disulphonic acid (PPADS) (Sigma-RBI)], P2X4R antisense or mismatch ODN. We confirmed that PPADS and TNP-ATP used in the present study show biological activity to inhibit effects of α,β-methylene ATP in vitro and in vivo. […] After the test, to quantify the levels of P2X4R protein in the spinal cord in both groups using Western blot analysis, the membrane fraction from the ipsilateral spinal cord segments L4-L6 was prepared. […]

Data set [5] relates to rat model of postoperative pain. As to conditions: administration at the incision area, effective only before surgical operation; cited from earlier work.
For data set [6], the system named is nociceptive behaviours. Particulars: intrathecal 30 or 100 nmol; cited from earlier work.
Data set [7] has as its system P2X4R protein. As to the kind of experiment: Western blot of P2X4R protein in spinal cord membrane fraction after intrathecal ODN treatment. Particulars: 5 nmol intrathecal once a day for 7 days, immunoblot. In kind it is in vivo, rat. As to the method: A unilateral L5 spinal nerve of male Wistar rats was tightly ligated and cut just distal to the ligature. To assess the mechanical allodynia, the calibrated von Frey filaments (0.4-15.1 g) were applied to the plantar surface of the hindpaw from below the mesh floor. The 50% paw withdrawal threshold was determined using the up-down method (Chaplan, S. R., Bach, F. W., Pogrel, J. W., Chung, J. M. & Yaksh, T. L. Quantitative assessment of tactile allodynia in the rat paw. J Neurosci Methods 53, 55-63, 1994). […] After the test, to quantify the levels of P2X4R protein in the spinal cord in both groups using Western blot analysis, the membrane fraction from the ipsilateral spinal cord segments L4-L6 was prepared. […]
The membrane fraction from spinal cord segments L4-L6 ipsilateral or contralateral to the nerve injury was used. […] The blots were detected using a chemiluminescence method (ECL system; Amersham) and exposed to autoradiography films (Hyperfilm-ECL; Amersham).
A general note: A western blot detects proteins with antibodies after separation by electrophoresis.

Data set [8] concerns microglia in the dorsal horn. The experiment in a line: Number of microglia and OX42 immunofluorescence in dorsal horn after ODN treatment. In kind it is in vivo, rat. Particulars: 5 nmol intrathecal once a day for 7 days. The source says: (§3) Transverse L5 spinal cord sections (30 μm) were cut and processed for immunohistochemistry using P2X4R antibody (Alomone). Markers of microglia, OX42 (Chemicon) and iba1 (gifted from S. Kohsaka); astrocytes, GFAP (Boehringer Mannheim); spinal cord neurones, NeuN (Chemicon) and MAP2 (Chemicon) were used to identify the type of P2X4R-positive cells. To assess immunofluorescence staining of cells quantitatively, we measured the immunofluorescence intensity of the P2X4R or OX42 as the average pixel intensity within each cell. Full details of experimental methods are as follows.
(§4) Transverse L5 spinal cord sections (30 μm) were incubated for 2 hr at room temperature in a blocking solution (3% normal goat serum) and then incubated for 48 hr at 4° C. in the primary antibody for P2X4R (anti-P2X4 receptor, 1:500, Alomone). […] The spinal cord sections were analysed using a MicroRadiance Confocal Imaging System (Bio-Rad) and an Olympus IX70 microscope equipped for epifluorescence. […] Microglia, as identified by OX42 immunofluorescence were outlined, and the immunofluorescence intensity (using a 9-bit scale) of the P2X4R or OX42 was determined as the average pixel intensity within each cell. Background fluorescence intensity was determined and was subtracted from the value obtained for microglia.

The test system of data set [9] is P2X4R protein. As to the kind of experiment: Immunofluorescence intensity of P2X4R protein in individual dorsal horn microglia after ODN treatment. The class given is in vivo, rat. As to conditions: 5 nmol intrathecal once a day for 7 days.
Description: as §3, §4

Where [10] appears, read: 5 nmol intrathecal once a day for 7 days, tested day 7.
[11] abbreviates: 30 nmol intrathecal 5 hr after ATP-stimulated microglia.

For the molecule “5′-ACCGCCGCCAGTGCCT-3′ (DNA, backbone and methylation of C not given here; end-capped with phosphorothioate linkages) [mismatch ODN]”, in data set [1] (setting [10]), the “paw withdrawal threshold compared with untreated controls” value was “not different”.

For the molecule `Nc1ncnc2c1ncn2[C@@H]1O[C@H](COP(=O)(O)OP(=O)(O)OP(=O)(O)O)[C@@H](O)[C@H]1O` [ATP, adenosine 5′-triphosphate], the “paw withdrawal threshold after intrathecal administration” value in data set [2] (normal rats, ATP 50 μM, tested 1, 3 and 5 hr later) is reported as “unaffected”. Moreover, the “340/360 emission ratio for fura-2 ([Ca2+]i)” value in data set [3] (agonist 50 μM, 10 s) is on record as “transient increase”.

Take “2′,3′-O-(2,4,6-Trinitrophenyl) Adenosine 5′-Triphosphate [TNP-ATP]”: the “paw withdrawal threshold on the side contralateral to the nerve injury” value in data set [1] (30 nmol intrathecal, 45 min after injection) is 14.3 ± 0.8 g. The “time of peak increase in paw withdrawal threshold after injection” value was “about 45 min” in data set [1] (30 nmol intrathecal, nerve-injured rats) and 45 to 75 min in data set [2] (setting [11]). Besides, the “effect on tactile allodynia” value in data set [1] (day 7, 30 nmol intrathecal, at peak of effect) is “reversed”. Besides, the “dose producing half-maximum effect on paw withdrawal threshold” value amounted to 8.1 nmol in [1] (day 7, intrathecal) and 15.5 nmol in [1] (day 14, intrathecal). The “paw withdrawal threshold 45 min after injection” value in [1] (day 7 after nerve injury, 30 nmol intrathecal) came out at 14.6 ± 0.5 g; in [1] (day 14 after nerve injury, 30 nmol intrathecal), 11.6 ± 1.3 g. Further, the “recovery of paw withdrawal threshold” value in data set [1] (day 14, 30 nmol intrathecal, 45 min after injection) is 73%. Also, in data set [1] (intrathecal), the “motor behaviour following administration” value was “no alteration”. For the same molecule, in data set [4], the “biological activity on effects of α,β-methylene ATP” value was “inhibit”. In addition, the “effect on allodynia caused by ATP-stimulated microglia” value in data set [2] (setting [11]) is listed as “reversed the allodynia”. Also, the “decrease in paw withdrawal threshold caused by ATP-stimulated microglia” value in [2] (10 μM together with ATP (50 μM) in the microglia pre-incubation) was “prevented”. Further, the “ATP-evoked increase in 340/360 ratio (fura-2)” value in data set [3] (10 μM) was “suppressed”.

For the molecule `CCOc1ccc(Nc2ccc(/C(=C3C=C/C(=[N+](/CC)Cc4cccc(S(=O)(=O)[O-])c4)C=C/3C)c3ccc(N(CC)Cc4cccc(S(=O)(=O)[O-])c4)cc3C)cc2)cc1.[Na+]` [brilliant blue G], the “ATP-evoked increase in 340/360 ratio (fura-2)” value in [3] (100 nM) is given as “not altered”.

As for `Cc1nc(N=Nc2ccc(S(=O)(=O)O)cc2S(=O)(=O)O)c(COP(=O)(O)O)c(C=O)c1O` [PPADS, Pyridoxalphosphate-6-azophenyl-2′,4′-disulphonic acid], the “effect on paw withdrawal threshold” value in data set [1] (day 7, 30 or 100 nmol intrathecal) was “no effect”; in data set [1] (day 14, 30 or 100 nmol intrathecal), “no effect”. The “allodynia in a rat model of postoperative pain” value in [5] was “suppressed allodynia”. Further, in data set [4], the “biological activity on effects of α,β-methylene ATP” value was “inhibit”. Further, the “nociceptive behaviours (intrathecal α,β-methylene ATP, second phase of formalin test, bee venom)” value in [6] was “suppress”. For the same molecule, the “ATP-evoked increase in 340/360 ratio (fura-2)” value in data set [3] (10 μM) was “unaffected”.

As for “5′-CAGCCCGCCATGGCTC-3′ (phosphorothioate end caps, number of linkages not given here) [P2X4R antisense ODN]”, in [1] (setting [10]), the “nerve injury-induced decrease in paw withdrawal threshold compared with mismatch ODN” value is on record as “significantly less” and the “recovery of paw withdrawal threshold towards the baseline level prior to nerve injury” value was determined as 47.4±8.3%. Besides, in data set [7], the “decrease of P2X4R protein level in spinal cord homogenates versus mismatch ODN” value is 32.0±4.8%. Moreover, in data set [8], the “level of OX42 immunofluorescence per individual microglia versus mismatch ODN” value was “nor was there a difference” and the “number of microglia in the dorsal horn versus mismatch ODN” value is listed as “no difference”. Also, the “decrease of immunofluorescence intensity of P2X4R protein in individual microglia versus mismatch ODN” value in data set [9] stood at 37.1±0.2%.

The values above are taken from patent US20050074819A1, “Screening method of drug for treatment of neuropathic pain” (JAPAN HEALTH SCIENCES FOUNDATION, priority 2003, published 2005).
